# According to patent publication US20110139152A1, “ANTIBIOTIC MICROPARTICLES FOR INHALATION” (Chiesi Farmaceutici S.p.A., priority 2009, published 2011):
# Experiment: Aerosol performance by laser diffraction (Spraytec with inhalation cell, Monodose inhaler)
# Format: physicochemical
# Details: mean
# Experimental: The aerosol performance of the microparticles of the present invention were evaluated by laser diffraction (Spraytec, Malvern Instruments, Worcestershire, UK) equipped with an inhalation cell attachment. Approximate 30 mg (or 15 mg in later tests) of each powder was loaded into size 3 HPMC capsules (Capsugel, Peapack, N.J., USA). Before the aerosolization, a stainless steel pin punched each end of the capsule allowing powders to be released from the capsule by providing two holes with diameter about 1 mm. Each capsule was aerosolized using a Monodose inhaler device (Miat S.p.A., Milan, Italy) at flow rate of 60 and 90 L/min. All measurements were made on four replicates at room temperature (20° C., 50% RH). Each measurement was performed over 4 s.
# The device retention was calculated as a percentage of powder left both in the capsules and in the inhalers to the total load. The fine particle fraction (FPF) was defined as the amount of drug particle smaller than 5.4 μm as a percentage of the powder emitted from inhaler device.
# It should be noted that all powders were tested after removing large agglomerates by gently passing the powders through a 250 μm sieve.
# To further improve both the emitted dose and FPF of the mechano-fused microparticles with lower contents of MgSt, e.g. between 0.5% and 1%, loose agglomeration was applied by vibrating powders between two sieves of 180 and 710 μm.
# Prior to this sieving process, powders were tumbled to encourage formation of loose agglomerates.
# [1] = 90 L/min, loosely agglomerated drug powders (tumbled, vibrated between sieves of 180 and 710 μm) versus unsieved
smiles,measurement,setting,value
"NC[C@H]1O[C@H](O[C@H]2[C@H](O)[C@@H](O[C@H]3O[C@H](CO)[C@@H](O)[C@H](N)[C@H]3O)[C@H](N)C[C@@H]2N)[C@H](N)C[C@@H]1O [TMC-raw, (2S,3R,4S,5S,6R)-4-amino-2-{[(1S,2S,3R,4S,6R)-4,6-diamino-3-{[(2R,3R,5S,6R)-3-amino-6-(aminomethyl)-5-hydroxyoxan-2-yl]oxy}-2-hydroxycyclohexyl]oxy}-6-(hydroxymethyl)oxane-3,5-diol]","<5.4 μm (%) (fine particle fraction, FPF)","90 L/min air flow, Monodose inhaler, percentage of the powder emitted, powders passed through 250 μm sieve",32.58%
same,"<5.4 μm (%) (fine particle fraction, FPF)","90 L/min air flow, Monodose inhaler, percentage of the powder emitted, powders passed through 250 μm sieve, listed as untreated drug powder",around 30%
same,Emitted dose (%),"90 L/min air flow, Monodose inhaler, size 3 HPMC capsules, powders passed through 250 μm sieve",70.77%
same,"<5.4 μm (%) (fine particle fraction, FPF)",[1],32.58%
same,Emitted dose (%),[1],70.77%
